Experimental data published in patent US6780871B2, “Methods and compositions for treating addiction disorders” (Albany Medical College, priority 2001, dated 2004).

Assays:
[1] = target: T1, α3β4 nACh receptors (Rattus norvegicus, UniProt P04757+P12392); assay: whole-cell patch-clamp of transfected HEK293 cells, ganglionic α3β4 nACh receptors, 1 mM ACh; type: cell-based
T1 construct: expressed in transfected cells; host or cells: HEK293 (ATCC CRL1573), transient transfection
Description: Human embryonic kidney 293 (HEK293) fibroblasts (ATCC CRL1573) were cultured in minimal essential medium supplemented with 10% fetal bovine serum and 2 mM glutamine (Life Technologies, Rockville, Md.). Cells were plated on poly-D-lysine-coated 35 mm nunc dishes, transfected by the LipofectaminePLUS method (Life Technologies), and examined functionally between 18-48 h post transfection. The following receptor subunit cDNAs were used: nAChR-α3 (nicotinic acetylcholine receptor-α3; accession no. L31621), nAChR-α4 (accession no. L31620), nAChR-β2 (accession no. L31622), nAChR-β4 (accession no. U42976), 5-HT3R-A (5-HT3A receptor; accession no. M74425), NR1 (N-methyl-D-aspartate receptor 1; accession no. X63255), NR2A (accession no. X91561), and NR2B (accession no. M91562). The nAchR and NR clones were rat; the 5-HT3R-A clone was mouse. Co-transfection of enhanced green fluorescent protein (“EGFP”) (10% of total cDNA) provided a marker to identify transfected cells. Transfected cells were selected for EGFP expression and examined by voltage-clamp recording in the whole-cell configuration using an Axopatch 200B patch-clamp amplifier (Axon Instruments, Foster City, Calif.). Thin-walled borosilicate glass microelectrodes (TW150F, World Precision Instruments, Sarasota, Fla.) had resistances of 3-5 MΩ when filled with an internal solution containing (in mM): 135 CsCl, 10 CsF, 10 HEPES (N-[2-hydroxyethyl]piperazine-N′-[2-ethanesulfonic acid]), 5 EGTA (ethylene glycol-bis[β-aminoethyl ether]-N,N,N′,N′-tetraacetic acid), 1 MgCl2, 0.5 CaCl2, pH 7.2. Whole-cell capacitance and series resistance were recorded and adequately compensated using the available circuitry of the amplifier. Current responses were filtered at 1 kHz with an 8-pole Bessel filter (Cygnus Technologies, Delaware Water Gap, Pa.), digitized at 3 kHz, and stored on a Macintosh PowerPC-G3 computer using an ITC-16 interface (Instrutech, Great Neck, N.Y.) under control of the data acquisition and analysis program Synapse (Synergy Research, Gaithersburg, Md.). […] Rapid switching between inputs was achieved using a set of upstream solenoid valves (Lee Co., Westbrook, Conn.) under computer control; the solution exchange rate was ˜5 ms as measured from liquid junction currents.
Transfected HEK293 cells expressing various receptor subunit cDNAs were examined by whole-cell patch-clamp recording with fast perfusion of agonist and drug solutions. […] In FIG. 1A, open bars depict the timing of ACh application; filled bars depict the timing of co-application of 20 μM IBO or 20 μM 18MC; and inhibition was measured relative to control at the end of the drug application (indicated by arrows). […]

[2] = target: T2, α3β4 nACh receptors (Rattus norvegicus, UniProt P09483+P12390); assay: whole-cell patch-clamp of transfected HEK293 cells, neuronal nACh receptors, 300 μM ACh; type: cell-based
T2 construct: expressed in transfected cells; host or cells: HEK293 (ATCC CRL1573), transient transfection
Description: (§1) Human embryonic kidney 293 (HEK293) fibroblasts (ATCC CRL1573) were cultured in minimal essential medium supplemented with 10% fetal bovine serum and 2 mM glutamine (Life Technologies, Rockville, Md.). Cells were plated on poly-D-lysine-coated 35 mm nunc dishes, transfected by the LipofectaminePLUS method (Life Technologies), and examined functionally between 18-48 h post transfection. The following receptor subunit cDNAs were used: nAChR-α3 (nicotinic acetylcholine receptor-α3; accession no. L31621), nAChR-α4 (accession no. L31620), nAChR-β2 (accession no. L31622), nAChR-β4 (accession no. U42976), 5-HT3R-A (5-HT3A receptor; accession no. M74425), NR1 (N-methyl-D-aspartate receptor 1; accession no. X63255), NR2A (accession no. X91561), and NR2B (accession no. M91562). The nAchR and NR clones were rat; the 5-HT3R-A clone was mouse. Co-transfection of enhanced green fluorescent protein (“EGFP”) (10% of total cDNA) provided a marker to identify transfected cells. Transfected cells were selected for EGFP expression and examined by voltage-clamp recording in the whole-cell configuration using an Axopatch 200B patch-clamp amplifier (Axon Instruments, Foster City, Calif.). Thin-walled borosilicate glass microelectrodes (TW150F, World Precision Instruments, Sarasota, Fla.) had resistances of 3-5 MΩ when filled with an internal solution containing (in mM): 135 CsCl, 10 CsF, 10 HEPES (N-[2-hydroxyethyl]piperazine-N′-[2-ethanesulfonic acid]), 5 EGTA (ethylene glycol-bis[β-aminoethyl ether]-N,N,N′,N′-tetraacetic acid), 1 MgCl2, 0.5 CaCl2, pH 7.2. Whole-cell capacitance and series resistance were recorded and adequately compensated using the available circuitry of the amplifier. Current responses were filtered at 1 kHz with an 8-pole Bessel filter (Cygnus Technologies, Delaware Water Gap, Pa.), digitized at 3 kHz, and stored on a Macintosh PowerPC-G3 computer using an ITC-16 interface (Instrutech, Great Neck, N.Y.) under control of the data acquisition and analysis program Synapse (Synergy Research, Gaithersburg, Md.). Cells were continuously superfused with extracellular solution containing (in mM): 150 NaCl, 3 KCl, 5 HEPES, 1 MgCl2, 1.8 CaCl2, 10 glucose, and 0.1 mg/ml phenol red, pH 7.3 (MgCl2 was omitted from all solutions used for the study of NMDA receptors). […] Control, agonist, and drug solutions were applied to individual cells by rapid perfusion. Solutions were driven by a syringe pump through a flowpipe having 4 inputs that converge at a single common output of approximately 100 μm diameter. Rapid switching between inputs was achieved using a set of upstream solenoid valves (Lee Co., Westbrook, Conn.) under computer control; the solution exchange rate was ˜5 ms as measured from liquid junction currents.
Transfected HEK293 cells expressing various receptor subunit cDNAs were examined by whole-cell patch-clamp recording with fast perfusion of agonist and drug solutions. […] Transfected HEK293 cells expressing α3β4 nACh receptors were voltage-clamped to −70 mV and stimulated with 1 mM ACh at 30 s intervals. […] In FIG. 1A, open bars depict the timing of ACh application; filled bars depict the timing of co-application of 20 μM IBO or 20 μM 18MC; and inhibition was measured relative to control at the end of the drug application (indicated by arrows). […] The data presented in FIG. 1B are mean±SEM for 3-14 cells per point, and curve fits are given for the logistic equation: I=Imax/(1+([drug]/IC50)). […] In this case, transfected HEK293 cells expressing α3β4 nACh receptors were voltage-clamped to −70 mV and stimulated with 300 μM ACh at 30 s intervals.

[3] = target: T3, NR1/2A receptors (Rattus norvegicus, UniProt P35439+Q00959); assay: whole-cell patch-clamp of transfected HEK293 cells, NR1/2A, 100 μM glutamate plus 10 μM glycine; type: cell-based
T3 construct: expressed in transfected cells; host or cells: HEK293 (ATCC CRL1573), transient transfection
Description: as §1
(§2) To study these, transfected HEK293 cells expressing NR1/2A or NR1/2B receptors were voltage-clamped to −70 mV and stimulated with 100 μM glutamate plus 10 μM glycine at 30 s intervals. […] In FIGS. 3A and 3B, open bars depict the timing of agonist application, filled bars depict the timing of co-application of 20 μM IBO or 20 μM 18MC, and inhibition was measured relative to control at the end of the drug application (indicated by arrows).

[4] = target: T4, NR1/2B receptors (Rattus norvegicus, UniProt P35439+Q00960); assay: whole-cell patch-clamp of transfected HEK293 cells, NR1/2B, 100 μM glutamate plus 10 μM glycine; type: cell-based
T4 construct: expressed in transfected cells; host or cells: HEK293 (ATCC CRL1573), transient transfection
Description: as §1, §2

[5] = target: T5, 5-HT3A receptors (Mus musculus, UniProt P23979); assay: whole-cell patch-clamp of transfected HEK293 cells, 5-HT3A, 100 μM serotonin; type: cell-based
T5 construct: expressed in transfected cells; host or cells: HEK293 (ATCC CRL1573), transient transfection
T5 sequence (P23979 24-489): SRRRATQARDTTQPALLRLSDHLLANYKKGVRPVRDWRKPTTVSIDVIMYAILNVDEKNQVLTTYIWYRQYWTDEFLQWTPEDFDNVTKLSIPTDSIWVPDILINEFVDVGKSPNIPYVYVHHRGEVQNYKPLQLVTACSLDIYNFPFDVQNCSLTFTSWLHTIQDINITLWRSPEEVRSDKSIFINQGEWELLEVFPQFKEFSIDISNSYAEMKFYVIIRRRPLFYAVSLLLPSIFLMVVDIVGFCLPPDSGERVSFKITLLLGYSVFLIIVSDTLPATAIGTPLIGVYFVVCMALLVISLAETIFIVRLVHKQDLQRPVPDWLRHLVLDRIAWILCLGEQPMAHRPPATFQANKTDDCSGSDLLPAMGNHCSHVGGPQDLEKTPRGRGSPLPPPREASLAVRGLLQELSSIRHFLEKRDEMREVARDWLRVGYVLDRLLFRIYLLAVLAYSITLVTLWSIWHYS
Description: as §1
as §2, with “Transfected” for “To study these, transfected”, “5-HT3A” for “NR1/2A or NR1/2B”, “serotonin” for “glutamate plus 10 μM glycine”, “This is shown in FIG. 4, where” for “In FIGS. 3A and 3B,”

[6] = target: NMDA-type glutamate receptors; details: literature (Popik, Chen); read-out: IC50 obtained in hippocampal neurons; cited from earlier work

T4 sequence (Q00960 27-1482, other chains not shown): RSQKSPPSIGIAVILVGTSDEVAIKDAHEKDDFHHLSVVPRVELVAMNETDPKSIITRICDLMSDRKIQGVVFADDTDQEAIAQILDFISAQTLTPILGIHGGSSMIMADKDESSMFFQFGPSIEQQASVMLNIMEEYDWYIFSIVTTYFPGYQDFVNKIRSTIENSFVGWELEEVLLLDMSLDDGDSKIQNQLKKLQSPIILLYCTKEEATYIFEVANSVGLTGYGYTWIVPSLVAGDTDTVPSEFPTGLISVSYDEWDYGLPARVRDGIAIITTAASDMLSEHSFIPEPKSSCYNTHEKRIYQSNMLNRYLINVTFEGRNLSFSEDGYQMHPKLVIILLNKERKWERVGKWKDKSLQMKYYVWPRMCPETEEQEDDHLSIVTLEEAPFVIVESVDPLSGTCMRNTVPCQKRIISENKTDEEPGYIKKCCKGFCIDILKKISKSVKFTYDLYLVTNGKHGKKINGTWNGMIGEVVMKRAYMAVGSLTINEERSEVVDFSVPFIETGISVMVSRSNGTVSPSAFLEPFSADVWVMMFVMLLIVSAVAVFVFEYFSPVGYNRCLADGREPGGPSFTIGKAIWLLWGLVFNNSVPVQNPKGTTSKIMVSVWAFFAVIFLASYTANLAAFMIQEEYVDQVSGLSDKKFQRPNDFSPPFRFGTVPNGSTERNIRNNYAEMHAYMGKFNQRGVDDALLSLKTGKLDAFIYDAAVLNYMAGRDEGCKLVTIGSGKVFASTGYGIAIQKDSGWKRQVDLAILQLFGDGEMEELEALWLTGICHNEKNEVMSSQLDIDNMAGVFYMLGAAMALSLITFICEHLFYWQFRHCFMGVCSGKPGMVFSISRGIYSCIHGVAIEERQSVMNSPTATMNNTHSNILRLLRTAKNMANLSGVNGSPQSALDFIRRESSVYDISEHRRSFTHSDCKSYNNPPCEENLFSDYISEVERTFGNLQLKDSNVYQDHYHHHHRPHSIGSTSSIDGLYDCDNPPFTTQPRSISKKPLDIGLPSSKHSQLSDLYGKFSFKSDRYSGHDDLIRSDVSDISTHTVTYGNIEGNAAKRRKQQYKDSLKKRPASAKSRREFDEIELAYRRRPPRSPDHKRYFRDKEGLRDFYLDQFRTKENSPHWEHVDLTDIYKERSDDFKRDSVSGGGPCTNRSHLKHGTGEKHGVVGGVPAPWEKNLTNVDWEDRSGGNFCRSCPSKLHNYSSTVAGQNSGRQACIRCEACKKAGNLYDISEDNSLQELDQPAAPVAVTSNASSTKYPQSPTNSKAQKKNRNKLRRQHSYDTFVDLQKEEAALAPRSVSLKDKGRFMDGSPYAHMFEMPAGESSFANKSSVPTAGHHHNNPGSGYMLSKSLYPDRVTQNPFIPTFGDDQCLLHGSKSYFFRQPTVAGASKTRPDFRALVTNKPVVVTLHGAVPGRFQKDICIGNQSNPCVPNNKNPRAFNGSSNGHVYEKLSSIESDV
T3 sequence (Q00959 20-1464 limits assumed, other chains not shown): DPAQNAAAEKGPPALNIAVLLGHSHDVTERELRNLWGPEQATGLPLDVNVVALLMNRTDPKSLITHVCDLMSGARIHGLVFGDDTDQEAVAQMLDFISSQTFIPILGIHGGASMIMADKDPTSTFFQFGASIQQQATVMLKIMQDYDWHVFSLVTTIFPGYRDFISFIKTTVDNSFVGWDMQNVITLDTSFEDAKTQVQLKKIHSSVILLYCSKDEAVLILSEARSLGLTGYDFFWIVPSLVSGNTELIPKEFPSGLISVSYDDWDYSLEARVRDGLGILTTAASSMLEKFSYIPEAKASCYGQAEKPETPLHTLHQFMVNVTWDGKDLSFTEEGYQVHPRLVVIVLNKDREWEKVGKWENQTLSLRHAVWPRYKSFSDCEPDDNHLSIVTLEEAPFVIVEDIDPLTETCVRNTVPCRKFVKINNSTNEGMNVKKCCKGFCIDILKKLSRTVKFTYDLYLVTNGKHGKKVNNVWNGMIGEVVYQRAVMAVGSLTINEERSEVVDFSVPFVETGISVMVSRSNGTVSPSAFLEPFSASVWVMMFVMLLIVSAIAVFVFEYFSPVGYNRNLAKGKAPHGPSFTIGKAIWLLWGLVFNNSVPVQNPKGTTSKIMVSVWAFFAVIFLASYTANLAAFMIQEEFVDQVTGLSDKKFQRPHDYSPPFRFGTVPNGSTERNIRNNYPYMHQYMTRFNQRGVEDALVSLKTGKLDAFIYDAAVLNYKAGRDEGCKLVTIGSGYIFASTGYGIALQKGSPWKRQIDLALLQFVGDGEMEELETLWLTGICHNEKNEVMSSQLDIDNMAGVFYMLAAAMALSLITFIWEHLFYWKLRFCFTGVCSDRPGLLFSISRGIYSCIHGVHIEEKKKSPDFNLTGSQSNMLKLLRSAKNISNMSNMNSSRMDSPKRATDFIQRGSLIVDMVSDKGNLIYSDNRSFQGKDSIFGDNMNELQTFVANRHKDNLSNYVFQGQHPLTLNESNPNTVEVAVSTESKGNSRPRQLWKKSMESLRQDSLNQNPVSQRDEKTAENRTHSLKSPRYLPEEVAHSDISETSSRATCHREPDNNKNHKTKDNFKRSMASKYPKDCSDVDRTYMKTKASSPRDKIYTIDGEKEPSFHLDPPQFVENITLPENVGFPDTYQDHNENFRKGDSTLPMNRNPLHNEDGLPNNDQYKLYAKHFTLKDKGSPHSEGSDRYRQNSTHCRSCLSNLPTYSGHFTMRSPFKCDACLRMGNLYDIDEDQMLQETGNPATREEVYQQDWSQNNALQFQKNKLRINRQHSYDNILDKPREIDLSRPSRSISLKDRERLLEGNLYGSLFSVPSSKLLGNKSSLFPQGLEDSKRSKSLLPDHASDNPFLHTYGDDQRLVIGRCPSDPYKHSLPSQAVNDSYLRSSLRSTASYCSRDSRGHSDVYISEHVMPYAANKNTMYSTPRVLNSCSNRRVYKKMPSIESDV
T2 sequence (P09483 31-630): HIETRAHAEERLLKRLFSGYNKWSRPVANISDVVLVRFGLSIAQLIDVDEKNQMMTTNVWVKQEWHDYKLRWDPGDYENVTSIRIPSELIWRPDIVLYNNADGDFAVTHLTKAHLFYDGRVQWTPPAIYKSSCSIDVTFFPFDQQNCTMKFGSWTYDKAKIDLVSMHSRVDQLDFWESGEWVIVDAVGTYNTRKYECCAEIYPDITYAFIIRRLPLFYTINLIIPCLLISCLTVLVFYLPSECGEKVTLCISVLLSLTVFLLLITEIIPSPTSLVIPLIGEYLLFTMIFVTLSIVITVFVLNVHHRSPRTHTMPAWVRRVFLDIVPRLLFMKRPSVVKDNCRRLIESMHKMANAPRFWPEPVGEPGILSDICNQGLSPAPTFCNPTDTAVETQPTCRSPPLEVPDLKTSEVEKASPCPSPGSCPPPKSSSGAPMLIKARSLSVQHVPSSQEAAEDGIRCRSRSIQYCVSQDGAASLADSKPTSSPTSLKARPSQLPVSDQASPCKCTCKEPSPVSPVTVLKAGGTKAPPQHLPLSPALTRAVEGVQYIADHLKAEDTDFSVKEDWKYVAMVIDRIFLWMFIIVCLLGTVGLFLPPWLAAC
T2 sequence (P12390 25-500): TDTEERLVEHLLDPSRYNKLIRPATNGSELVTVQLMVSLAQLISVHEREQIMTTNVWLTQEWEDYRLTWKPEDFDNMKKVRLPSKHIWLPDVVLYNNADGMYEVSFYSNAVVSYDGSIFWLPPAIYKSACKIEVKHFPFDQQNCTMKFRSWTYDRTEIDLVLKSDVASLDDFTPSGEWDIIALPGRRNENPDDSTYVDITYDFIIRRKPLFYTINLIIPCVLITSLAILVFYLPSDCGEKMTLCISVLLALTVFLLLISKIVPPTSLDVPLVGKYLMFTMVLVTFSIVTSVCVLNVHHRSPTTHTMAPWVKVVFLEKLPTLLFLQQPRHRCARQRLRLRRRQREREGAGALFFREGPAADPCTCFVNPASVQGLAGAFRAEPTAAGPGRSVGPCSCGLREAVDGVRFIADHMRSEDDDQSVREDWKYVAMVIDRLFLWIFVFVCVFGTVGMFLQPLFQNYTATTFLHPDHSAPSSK
T1 sequence (P04757 26-499): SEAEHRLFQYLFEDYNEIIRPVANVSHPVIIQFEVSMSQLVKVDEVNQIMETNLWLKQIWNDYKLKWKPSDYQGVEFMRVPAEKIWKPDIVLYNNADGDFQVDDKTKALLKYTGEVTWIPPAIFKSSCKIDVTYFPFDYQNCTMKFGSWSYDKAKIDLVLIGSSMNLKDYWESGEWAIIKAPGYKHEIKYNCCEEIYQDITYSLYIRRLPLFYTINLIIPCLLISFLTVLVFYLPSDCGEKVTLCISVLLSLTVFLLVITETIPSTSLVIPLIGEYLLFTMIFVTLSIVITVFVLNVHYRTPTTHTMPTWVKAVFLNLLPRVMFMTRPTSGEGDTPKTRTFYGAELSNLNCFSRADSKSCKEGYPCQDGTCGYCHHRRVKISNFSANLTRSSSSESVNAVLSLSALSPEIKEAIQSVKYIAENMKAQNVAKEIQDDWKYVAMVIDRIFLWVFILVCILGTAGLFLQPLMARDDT
T1 sequence (P12392 21-495): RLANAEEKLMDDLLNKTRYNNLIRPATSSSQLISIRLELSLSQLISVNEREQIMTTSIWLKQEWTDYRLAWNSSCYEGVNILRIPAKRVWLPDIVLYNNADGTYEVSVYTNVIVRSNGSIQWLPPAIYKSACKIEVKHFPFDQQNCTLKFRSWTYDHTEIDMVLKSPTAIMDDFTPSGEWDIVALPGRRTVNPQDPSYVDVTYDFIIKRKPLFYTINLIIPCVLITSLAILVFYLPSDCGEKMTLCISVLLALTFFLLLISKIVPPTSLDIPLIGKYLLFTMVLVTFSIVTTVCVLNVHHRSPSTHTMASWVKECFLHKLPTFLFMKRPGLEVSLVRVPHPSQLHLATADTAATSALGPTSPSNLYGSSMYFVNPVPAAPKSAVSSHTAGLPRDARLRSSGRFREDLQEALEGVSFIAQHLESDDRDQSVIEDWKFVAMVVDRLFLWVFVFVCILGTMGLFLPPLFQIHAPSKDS

ibogaine
response to drug applied alone (agonist activity) ([1]; 20 μM drug alone, -70 mV): did not produce any response | inhibition of ACh-evoked responses on co-application ([1]; 20 μM drug with 1 mM ACh, N=15, FIG. 1A): nearly abolished | inhibition of ACh-evoked response ([2]; 5 μM drug with 300 μM ACh): 61±4% | response to drug applied alone (agonist activity) ([2]; 20 μM drug alone, -70 mV): did not produce any response | inhibition of ACh-evoked response ([2]; 20 μM drug with 300 μM ACh, FIG. 2): 93±3% | inhibition of agonist-evoked response ([3]; 10 μM drug, co-application): 51±9% | response to drug applied alone (agonist activity) ([3]; 20 μM drug alone): did not produce any response | reduction of agonist-evoked response ([3]; 20 μM drug, co-application): 98±3% | inhibition of agonist-evoked response ([4]; 10 μM drug, co-application): 82±3% | response to drug applied alone (agonist activity) ([4]; 20 μM drug alone): did not produce any response | reduction of agonist-evoked response ([4]; 20 μM drug, co-application): 95±2% | response to drug applied alone (agonist activity) ([5]; 20 μM drug alone): did not produce any response | inhibition of serotonin-evoked responses ([5]; 20 μM drug with 100 μM serotonin, FIG. 4): 53±3% | IC50 [6]: 3 to 5 µM
